Experimental data taken from ChEMBL document CHEMBL1201862, “PubChem BioAssay data set” (2004).
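Cultured in 96-well plates, cells were exposed to test compound for 48 hours across five concentrations. At the GI50, growth is halved.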 Calls of active or inactive are those of the source. Rule as the data show it: active = GI50 up to about 1.1 µM and inactive = higher.

What was measured:
Assay in all cases: inhibition of tumour cell growth, NCI panel, 48 h
SN12C = system: SN12C
NCI/ADR-RES = system: NCI/ADR-RES
MOLT-4 = system: MOLT-4
HCT-15 = system: HCT-15
MCF7 = system: MCF7
EKVX = system: EKVX
NCI-H460 = system: NCI-H460
COLO 205 = system: COLO 205
MDA-N = system: MDA-N
PC-3 = system: PC-3
SK-MEL-2 = system: SK-MEL-2
SNB-75 = system: SNB-75
T47D = system: T47D
K562 = system: K562
MDA-MB-435 = system: MDA-MB-435
TK-10 = system: TK-10
ACHN = system: ACHN
SK-OV-3 = system: SK-OV-3
SW-620 = system: SW-620
RXF 393 = system: RXF 393

Structure (SMILES) | GI50 (SN12C) | GI50 (NCI/ADR-RES) | GI50 (MOLT-4) | GI50 (HCT-15) [µM] | GI50 (MCF7) | GI50 (EKVX) | GI50 (NCI-H460) | GI50 (COLO 205) | GI50 (MDA-N) | GI50 (PC-3) | GI50 (SK-MEL-2) | GI50 (SNB-75) | GI50 (T47D) | GI50 (K562) | GI50 (MDA-MB-435) | GI50 (TK-10) | GI50 (ACHN) | GI50 (SK-OV-3) | GI50 (SW-620) | GI50 (RXF 393)
COC(=O)C1=COC(C)C2C[n+]3ccc4c([nH]c5ccccc54)c3CC12 (configuration not stated) | > 100 µM (inactive) | > 100 µM (inactive) | 38.9 µM (inactive) | 75.2 | 42.7 µM (inactive) | > 100 µM (inactive) | 36.2 µM (inactive) | > 100 µM (inactive) | > 100 µM (inactive) | > 100 µM (inactive) | > 100 µM (inactive) | > 100 µM (inactive) | 36.6 µM (inactive) | > 100 µM (inactive) | > 100 µM (inactive) | > 100 µM (inactive) | > 100 µM (inactive) | > 100 µM (inactive) | > 100 µM (inactive) | 
C=C1C(=O)C23CC1CCC2C12CO[C@H](O)[C@H]1C(C)(C)[C@H](OC(C)=O)C[C@H]2OC3=O (some centres not stated) | 21.1 µM (inactive) | 28.1 µM (inactive) | 15.2 µM (inactive) | 14.6 | 15.8 µM (inactive) | 15.1 µM (inactive) | 34.6 µM (inactive) | 15.1 µM (inactive) | 16.1 µM (inactive) | > 100 µM (inactive) | 15.3 µM (inactive) | 46.2 µM (inactive) | 19.7 µM (inactive) | 5.9 µM (inactive) | 21.5 µM (inactive) | 14.3 µM (inactive) | 15.9 µM (inactive) | > 100 µM (inactive) | 14.3 µM (inactive) | 
O=C(N/N=C1\CCc2ccccc2C1)N/N=C1\CCc2ccccc2C1 | > 10 µM (inactive) | > 10 µM (inactive) | > 10 µM (inactive) | > 10 | > 10 µM (inactive) | > 10 µM (inactive) | > 10 µM (inactive) | > 10 µM (inactive) | > 10 µM (inactive) | > 10 µM (inactive) | > 10 µM (inactive) |  | > 10 µM (inactive) | > 10 µM (inactive) | > 10 µM (inactive) | > 10 µM (inactive) | > 10 µM (inactive) |  | > 10 µM (inactive) | > 10 µM (inactive)
COc1cc2c(c(O)c1OC)C(=O)[C@@H]1CCC(=O)N1C2 | > 100 µM (inactive) | > 100 µM (inactive) | > 100 µM (inactive) | > 100 | > 100 µM (inactive) | > 100 µM (inactive) | > 100 µM (inactive) | > 100 µM (inactive) | > 100 µM (inactive) | > 100 µM (inactive) | > 100 µM (inactive) | > 100 µM (inactive) | > 100 µM (inactive) | > 100 µM (inactive) | > 100 µM (inactive) | > 100 µM (inactive) | > 100 µM (inactive) | > 100 µM (inactive) | > 100 µM (inactive) | 
CCCCNC(=O)C1=C(C)NC(C)=C(C(=O)NCCCC)C1 | > 100 µM (inactive) | > 100 µM (inactive) | > 100 µM (inactive) | > 100 | > 100 µM (inactive) | 58.7 µM (inactive) | > 100 µM (inactive) | > 100 µM (inactive) | > 100 µM (inactive) |  | > 100 µM (inactive) | 49.8 µM (inactive) | > 100 µM (inactive) |  | > 100 µM (inactive) | > 100 µM (inactive) | > 100 µM (inactive) | > 100 µM (inactive) | > 100 µM (inactive) | > 100 µM (inactive)
COc1cccc(C2c3cc4c(cc3OC(N3CCCCC3)C2C)OCO4)c1OC (configuration not stated) | 5.73 µM (inactive) |  | 4.42 µM (inactive) | 3.37 | 5.71 µM (inactive) | 13.7 µM (inactive) | 4.46 µM (inactive) | 7.64 µM (inactive) | 11.2 µM (inactive) | 5.58 µM (inactive) | 5.96 µM (inactive) | 5.52 µM (inactive) | 4.1 µM (inactive) | 3.63 µM (inactive) | 11.3 µM (inactive) | 16.5 µM (inactive) | 3.19 µM (inactive) | 12.4 µM (inactive) | 3.93 µM (inactive) | 4.08 µM (inactive)
